According to ChEMBL document CHEMBL1142798, “Lipophilic versus hydrogen-bonding effect in P3 on potency and selectivity of valine aspartyl ketones as caspase 3 inhibitors” (Bioorg Med Chem Lett, 2005):

Columns and labels:
[1] = target: T1, Caspase-3 (Homo sapiens, UniProt P42574); test: Inhibitory activity against recombinant human Caspase-3
T1 sequence (P42574 whole entry): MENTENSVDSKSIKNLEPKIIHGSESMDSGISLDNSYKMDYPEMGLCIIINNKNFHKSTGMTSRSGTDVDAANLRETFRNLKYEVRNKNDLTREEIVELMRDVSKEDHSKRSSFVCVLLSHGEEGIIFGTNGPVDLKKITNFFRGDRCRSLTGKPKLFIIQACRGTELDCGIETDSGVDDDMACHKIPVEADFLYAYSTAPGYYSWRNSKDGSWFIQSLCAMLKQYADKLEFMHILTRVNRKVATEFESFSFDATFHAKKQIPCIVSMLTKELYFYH

[2] = target: Caspase-8 (Homo sapiens, UniProt Q14790); test: Inhibitory activity against recombinant human Caspase-8
[3] = target: T2, Caspase-1 (Homo sapiens, UniProt P29466); test: Inhibitory activity against recombinant human Caspase-1
T2 sequence (P29466 whole entry): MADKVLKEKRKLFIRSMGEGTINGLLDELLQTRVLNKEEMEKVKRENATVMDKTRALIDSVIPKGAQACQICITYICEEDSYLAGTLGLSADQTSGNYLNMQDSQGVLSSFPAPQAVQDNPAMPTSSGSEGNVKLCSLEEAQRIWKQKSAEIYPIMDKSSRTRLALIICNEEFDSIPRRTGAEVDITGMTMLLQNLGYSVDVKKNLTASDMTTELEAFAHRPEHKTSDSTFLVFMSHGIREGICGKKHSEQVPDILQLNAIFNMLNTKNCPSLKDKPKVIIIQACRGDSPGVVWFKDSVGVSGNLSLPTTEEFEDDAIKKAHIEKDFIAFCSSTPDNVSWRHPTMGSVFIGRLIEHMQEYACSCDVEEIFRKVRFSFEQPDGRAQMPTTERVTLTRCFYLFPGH

[4] = target: T3, Caspase-7 (Homo sapiens, UniProt P55210); test: Inhibitory activity against recombinant human Caspase-7
T3 sequence (P55210 whole entry): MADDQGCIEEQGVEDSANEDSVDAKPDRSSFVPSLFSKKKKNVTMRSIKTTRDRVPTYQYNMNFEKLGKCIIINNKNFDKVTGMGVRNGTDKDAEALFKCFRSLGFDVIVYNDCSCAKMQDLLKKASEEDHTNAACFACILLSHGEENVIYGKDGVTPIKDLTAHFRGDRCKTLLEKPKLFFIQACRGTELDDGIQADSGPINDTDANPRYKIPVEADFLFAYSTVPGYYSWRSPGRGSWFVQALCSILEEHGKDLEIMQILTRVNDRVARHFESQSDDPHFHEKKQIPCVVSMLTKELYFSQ

Caspase-8, sequence (Q14790 217-374 limits assumed): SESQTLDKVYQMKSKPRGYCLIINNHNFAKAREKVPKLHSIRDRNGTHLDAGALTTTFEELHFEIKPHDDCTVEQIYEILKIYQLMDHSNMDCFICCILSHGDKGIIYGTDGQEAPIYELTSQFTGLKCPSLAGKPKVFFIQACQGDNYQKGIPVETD
Caspase-8, sequence (Q14790 385-479 limits assumed): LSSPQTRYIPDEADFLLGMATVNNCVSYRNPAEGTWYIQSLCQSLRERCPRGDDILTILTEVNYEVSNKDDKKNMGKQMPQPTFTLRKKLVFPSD

Row | SMILES | IC50 [1] [µM] | IC50 [2] [µM] | IC50 [3] [µM] | IC50 [4] [µM]
1 | COc1ccc(OC)c(CC(=O)N[C@H](C(=O)N[C@@H](CC(=O)O)C(=O)CSCc2ccccc2)C(C)C)c1 | 0.053 | 7.91 | 7.07 | 
2 | COc1ccc(C(C)=O)cc1CC(=O)N[C@H](C(=O)N[C@@H](CC(=O)O)C(=O)CSCc1ccccc1)C(C)C | 0.013 | 3.88 | 6.19 | 0.555
3 | CC(C)[C@H](NC(=O)C(C)(C)O)C(=O)N[C@@H](CC(=O)O)C(=O)CSCc1ccccc1 | 0.467 | 13.8 | 18.4 | 10.9
4 | CCC[C@@H](C(=O)N[C@H](C(=O)N[C@@H](CC(=O)O)C(=O)CSCc1ccccc1)C(C)C)c1cc(Br)ccc1OC |  |  | > 10 | 
5 | CC(C)[C@H](O)C(=O)N[C@H](C(=O)N[C@@H](CC(=O)O)C(=O)CSCc1ccccc1)C(C)C | 0.118 | 7.34 | 3.01 | 3.4
6 | COc1ccc(Br)cc1[C@H](C(=O)N[C@H](C(=O)N[C@@H](CC(=O)O)C(=O)CSCc1ccccc1)C(C)C)C(C)C |  |  | > 10 | > 10
7 | COc1ccc(Br)cc1[C@@H](C)C(=O)N[C@H](C(=O)N[C@@H](CC(=O)O)C(=O)CSCc1ccccc1)C(C)C |  |  | > 10 | 
8 | CC(C)[C@H](NC(=O)C(O)(C(F)(F)F)C(F)(F)F)C(=O)N[C@@H](CC(=O)O)C(=O)CSCc1ccccc1 | 0.146 | > 10 | > 10 | > 10
9 | CC(C)[C@H](NC(=O)C(O)(c1ccccc1)c1ccccc1)C(=O)N[C@@H](CC(=O)O)C(=O)CSCc1ccccc1 | 1.29 | > 10 | > 10 | > 10
10 | CC(C)[C@H](NC(=O)C(C)(O)c1ccccc1)C(=O)N[C@@H](CC(=O)O)C(=O)CSCc1ccccc1 (stereo not given in full) | 0.085 | 8 | 18.9 | 2.76
11 | CCC(O)(CC)C(=O)N[C@H](C(=O)N[C@@H](CC(=O)O)C(=O)CSCc1ccccc1)C(C)C | 2.02 | 9.58 | > 10 | > 10
12 | CC(C)[C@H](NC(=O)[C@H](O)c1ccccc1)C(=O)N[C@@H](CC(=O)O)C(=O)CSCc1ccccc1 | 0.041 | 1.15 | 4.16 | 1.05
13 | CC(C)[C@H](NC(=O)Cc1ccccc1)C(=O)N[C@@H](CC(=O)O)C(=O)CSCc1ccccc1 |  | 22.1 | 21.2 | 
14 | CC(C)[C@H](NC(=O)C1(O)CC1)C(=O)N[C@@H](CC(=O)O)C(=O)CSCc1ccccc1 | 0.16 | 12.3 | 9.59 | 5.09
15 | CO[C@H](C(=O)N[C@H](C(=O)N[C@@H](CC(=O)O)C(=O)CSCc1ccccc1)C(C)C)c1ccccc1 | 0.425 | 9.17 | > 10 | > 10
16 | COc1ccc(-c2nc(C)no2)cc1CC(=O)N[C@H](C(=O)N[C@@H](CC(=O)O)C(=O)CSCc1ccccc1)C(C)C | 0.009 | 3.29 | 5.45 | 0.097
17 | CC(C)[C@H](NC(=O)[C@H](O)C(C)C)C(=O)N[C@@H](CC(=O)O)C(=O)CSCc1ccccc1 | 0.33 | 7.27 | > 10 | > 10
18 | COc1ccc(Br)cc1[C@H](C(=O)N[C@H](C(=O)N[C@@H](CC(=O)O)C(=O)CSCc1ccccc1)C(C)C)C1CC1 | 0.323 | > 10 | > 10 | > 10
19 | CC(C)[C@H](NC(=O)C(O)c1ccccc1)C(=O)N[C@@H](CC(=O)O)C(=O)CSCc1ccccc1 (single isomer, unassigned) | 0.1 | 3.65 | 4.06 | 10.9
20 | COc1ccc(Br)cc1CC(=O)N[C@H](C(=O)N[C@@H](CC(=O)O)C(=O)CSCc1ccccc1)C(C)C (stereo in doubt; 6) | 0.018 | 1.89 | 3.04 | 0.284
21 | C#CC[C@@H](C(=O)N[C@H](C(=O)N[C@@H](CC(=O)O)C(=O)CSCc1ccccc1)C(C)C)c1cc(Br)ccc1OC (stereo in doubt; 13) | 0.341 | 4.47 | > 10 | 3.62
22 | C#CC[C@@H](C(=O)N[C@H](C(=O)N[C@@H](CC(=O)O)C(=O)CSCc1ccccc1)C(C)C)c1cc(Br)ccc1OC (stereo in doubt; 14) | 0.017 | 0.092 | 1.03 | 0.139
23 | COc1ccc(Br)cc1CC(=O)N[C@H](C(=O)N[C@@H](CC(=O)O)C(=O)CSCc1ccccc1)C(C)C (stereo in doubt; 29) | 0.018 | 1.89 |  | 0.285
